Assays:
[1] = test system: tumor endothelial cells (activated) and normal endothelial cells (quiescent); assay: Selectivity between activated and quiescent endothelial cells; type: cell-based
Experimental: (§1) Proliferation Assay—quiescent endothelium: Human umbilical vein endothelial cells (CC-2519, Clonetics) were plated at 15000 cells/well in EBM2 (CC-3156, Clonetics)+0.5% FBS (CC-4101A, Clonetics)+GA-1000 (CC-4381A, Clonetics) in a 96 well plate in triplicate. Cells were cultured overnight at 37° C. 5% CO2. Medium was subsequently replaced with fresh medium including the compound or negative control. Cells were cultured for a period of 48 hrs. An MTT assay was performed to measure changes in cell numbers. Briefly, 20 μl of MTT reagent was added to cells containing 100 μl of EBM2+0.5% FBS and incubated at 37° C. for 2 hours. Absorbance was measured at 492 nm.
as §1, with “Assay—activated” for “Assay—quiescent”, “2500” for “15000”, “EGM2 (CC-3162,” for “EBM2 (CC-3156, Clonetics)+0.5% FBS (CC-4101A, Clonetics)+GA-1000 (CC-4381A,”, “EGM2” for “EBM2+0.5% FBS”

[2] = test system: MDA-MB-231 solid orthotopic tumors; assay: Tumor growth inhibition, MDA-MB-231 orthotopic tumors; type: in vivo, Balb/c nu/nu mice; conditions: 40 mg/kg i.v., two cycles, up to 72 days; vs vehicle p<0.001 from day 4 to Day 70
Excerpt: Animals were i.v. dosed with a total of two cycles of Example 2 treatment. Each cycle was dosing on […] followed by a three week no-dosing period. Tumor growth represented as a ratio to initial tumor volume is shown over a total of 72-days.
Tumor growth as well as animal health were monitored for up to 72 days post-day 1 of treatment. […] Significant differences in tumor growth between Example 2 treated (n=64) and vehicle treated (n=20) animals were observed as early as day 4 (p<0.001; unpaired t-test; Prism® analysis) through to Day 70.

[3] = test system: Caki-1 xenograft tumors; assay: Immunohistochemistry analysis of Caki-1 renal xenografts; type: in vivo, BALB/c nu/nu mice; conditions: single i.v. 32 mg/kg
Excerpt: These effects result in some reduction of tumor growth in animal models. Tumor recovery from the vascular damage caused by VDA action occurs within 48 hrs post-treatment. Furthermore, vascular disruption spares the outer cellular rim of a tumor mass that appears to be supported by normal vessels that surround the tumor capsule and remain unaffected by VDA action. It is reasonable to hypothesise that his viable rim subsequently supports tumor revascularisation and recovery from the action of the VDA agent. We hypothesised that the recovery of the tumors from the effects of the VDA action is driven by molecular pathways that support cancer cell survival and induction of angiogenesis. We undertook a number of histological analyses to assess the damage caused by Example 2 on the integrity of components of the tumor microenvironment and obtain information of upregulation of proteins that are likely to be involved in tumor recovery. Our analyses included evaluation of the expression of VEGF, phosphorylated mTOR, Hypoxia inducible factor-1-alpha (Hif-1α), and Hypoxia inducible factor-2-alpha (Hif-2α), the level of apoptosis, integrity of endothelial cells and the basement membrane protein laminin.
Female BALB/c nu/nu mice at 6 to 8 weeks were injected s.c. with the human cancer cell line Caki-1 representing renal cancer. Cells were resuspended in Dulbecco's PBS (Sigma-Aldrich) and 5×10^6 cells were injected s.c. Tumors were grown to an average size of 700 mm^3 prior to treatment. Example 2 treatment consisted of a single i.v. injection at dose level of 32 mg/kg. Saline treatment was included as a vehicle control. Animals were euthanized and tumors were excised for histologic examination 24 hours post dosing. Cryosections of tumors were prepared and probed with phosphorylated mTOR (ser 2448), Hif-1α, Hif-2α and CD31 specific antibodies. Antibody staining was visualized using 3,3′-Diaminobenzidine (brown staining) and sections were conterstained with Myers hematoxylin.

[4] = test system: MCF-7; assay: Growth inhibition (SRB or cell counting), MCF-7; type: cell-based; conditions: Homo sapiens, MCF7, concentration required to inhibit net cell growth by 50%, read-out: Cancer cell line: IC50
[5] = test system: Human umbilical vein endothelial cells (HUVECs), tumour type activated endothelial cells; assay: Proliferation assay, activated endothelium (Tum); type: cell-based; conditions: HUVEC, given as ranges
Experimental: as §1, with “Assay—activated” for “Assay—quiescent”, “2500” for “15000”, “EGM2 (CC-3162,” for “EBM2 (CC-3156, Clonetics)+0.5% FBS (CC-4101A, Clonetics)+GA-1000 (CC-4381A,”, “EGM2” for “EBM2+0.5% FBS”

[6] = test system: Human umbilical vein endothelial cells (HUVECs), normal quiescent type endothelial cells; assay: Proliferation assay, quiescent endothelium (Norm); type: cell-based; conditions: HUVEC, given as ranges
Experimental: as §1

[7] = test system: MDA-MB-231; assay: Growth inhibition (SRB or cell counting), MDA-MB-231; type: cell-based; conditions: Homo sapiens; MDA-MB-231 (footnote b); given as ranges; read-out: Cancer cell line: IC50
[8] = around the viable rim region, 24 hours

Structure (SMILES)	IC50 [5] [nM]	IC50 [6] [nM]	further results
COc1ccc(/C=C\c2cc(OC)c(OC)c(OC)c2)cc1O [Combretastatin A4]			Selectivity activated vs quiescent endothelial cells [1]: equally potent against quiescent and activated endothelial cells
COc1cc(C(=O)c2c(C)oc3c(OP(=O)([O-])[O-])c(OC)ccc23)cc(OC)c1OC.[Na+].[Na+] [Example 2, Disodium 6-methoxy-2-methyl-3-(3,4,5-trimethoxybenzoyl)benzofuran-7-yl phosphate]			Tumor growth (ratio to initial tumor volume) [2]: tumor growth inhibition; Number of apoptotic cells within the tumor ([3]; 24-30 hrs after treatment): significant increase in the number of apoptotic cells; Staining of laminin (basement membrane integrity) ([3]; 24-30 hrs after treatment): considerable reduction in the staining; Staining with anti-human VEGF antibody ([3]; 24-30 hrs after treatment): dramatic increase in staining; Staining with endothelial cell marker CD31 ([3]; 24-30 hrs after treatment): decrease in staining; Expression of Hif-1α [3, 8]: Increased expression; Expression of Hif-2α [3, 8]: Increased expression; Expression of phosphorylated mTOR (ser 2448) [3, 8]: Increased expression
COc1ccc(/C=C\c2cc(OC)c(OC)c(OC)c2)cc1OP(=O)(O)O [Example 4]	1 to 10	1 to 10	IC50 [4]: 5 nM
COc1ccc2c(C(=O)c3cc(OC)c(OC)c(OC)c3)coc2c1 [Example 5]	10 to 100	10 to 100	IC50 [4]: 55 nM
CNc1oc2c(O)c(OC)ccc2c1C(=O)c1cc(OC)c(OC)c(OC)c1 [Example 10]	1 to 10	0.1 to 1	IC50 [4]: 3.5 nM
C#Cc1oc2c(O)c(OC)ccc2c1C(=O)c1cc(OC)c(OC)c(OC)c1 [Example 12]	1 to 10	1 to 10	IC50 [4]: 3.3 nM
COc1cc(C(=O)c2coc3c(N)c(OC)ccc23)cc(OC)c1OC [Example 19]	1 to 10	1 to 10	IC50 [7]: 1 to 10 nM
COc1cc(C(=O)c2c(C#N)oc3c(O)c(OC)ccc23)cc(OC)c1OC [Example 23]	1 to 10	1 to 10	IC50 [7]: 0.1 to 1 nM
COc1cc(C(=O)c2c(N)oc3c(O)c(OC)ccc23)cc(OC)c1OC [Example 25]	1 to 10	1 to 10	IC50 [7]: 0.1 to 1 nM
CCCCc1oc2c(O)c(OC)ccc2c1C(=O)c1cc(OC)c(OC)c(OC)c1 [Example 32]	1 to 10	1 to 10	
CCc1oc2c(O)c(OC)ccc2c1C(=O)c1cc(OC)c(OC)c(OC)c1 [Example 33]	0.1 to 1	0.1 to 1	
COc1cc(C(=O)c2c(CN(C)C)oc3c(O)c(OC)ccc23)cc(OC)c1OC [Example 34]	1 to 10	1 to 10	
COc1cc(C(=O)c2c(C)[nH]c3c(O)c(OC)ccc23)cc(OC)c1OC [Example 39]	0.01 to 0.1	0.1 to 1	
COc1ccc2c(C(=O)c3cc(OC)c(OC)c(OC)c3)c(C)sc2c1 [Example 41]	1 to 10	1 to 10	
COc1cc(C(=O)c2c(C)sc3c(O)c(OC)ccc23)cc(OC)c1OC [Example 42]	0.1 to 1	1 to 10	
COc1cc(C(=O)c2c(NCCS(N)(=O)=O)oc3c(O)c(OC)ccc23)cc(OC)c1OC [Example 45]	1 to 10	1 to 10	

— patent publication US9006284B2, “Combination therapy for treating proliferative diseases” (Bionomics Limited, priority 2009, dated 2015)
